Reference: patent US20090018134A1, “Compounds - 945” (AstraZeneca AB, priority 2007, published 2009)
Read-outs that look alike come from different tables or passages of the source.

Target: T1, mTOR (Homo sapiens, UniProt P42345)
T1 construct: FLAG; made in house
Assay: In Vitro mTOR Kinase Assay (Echo), Test (a)(ii)
Format: biochemical
How it was run: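 Inhibition expressed as IC50 from an AlphaScreen read-out: phospho-T389 p70 S6K antibody plus streptavidin donor/protein A acceptor beads, left overnight in the dark. The kinase reaction ran 2 h at room temperature, then was stopped with EDTA. Enzyme: FLAG-purified mTOR 1362-2549 fragment from stable HEK293 cells.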

[1] = read-out: mTOR Kinase Assay (Echo)
[2] = table of enzyme assay Test (a)(ii), read-out: Test (a)(ii) IC50

T1 sequence (P42345 1362-2549): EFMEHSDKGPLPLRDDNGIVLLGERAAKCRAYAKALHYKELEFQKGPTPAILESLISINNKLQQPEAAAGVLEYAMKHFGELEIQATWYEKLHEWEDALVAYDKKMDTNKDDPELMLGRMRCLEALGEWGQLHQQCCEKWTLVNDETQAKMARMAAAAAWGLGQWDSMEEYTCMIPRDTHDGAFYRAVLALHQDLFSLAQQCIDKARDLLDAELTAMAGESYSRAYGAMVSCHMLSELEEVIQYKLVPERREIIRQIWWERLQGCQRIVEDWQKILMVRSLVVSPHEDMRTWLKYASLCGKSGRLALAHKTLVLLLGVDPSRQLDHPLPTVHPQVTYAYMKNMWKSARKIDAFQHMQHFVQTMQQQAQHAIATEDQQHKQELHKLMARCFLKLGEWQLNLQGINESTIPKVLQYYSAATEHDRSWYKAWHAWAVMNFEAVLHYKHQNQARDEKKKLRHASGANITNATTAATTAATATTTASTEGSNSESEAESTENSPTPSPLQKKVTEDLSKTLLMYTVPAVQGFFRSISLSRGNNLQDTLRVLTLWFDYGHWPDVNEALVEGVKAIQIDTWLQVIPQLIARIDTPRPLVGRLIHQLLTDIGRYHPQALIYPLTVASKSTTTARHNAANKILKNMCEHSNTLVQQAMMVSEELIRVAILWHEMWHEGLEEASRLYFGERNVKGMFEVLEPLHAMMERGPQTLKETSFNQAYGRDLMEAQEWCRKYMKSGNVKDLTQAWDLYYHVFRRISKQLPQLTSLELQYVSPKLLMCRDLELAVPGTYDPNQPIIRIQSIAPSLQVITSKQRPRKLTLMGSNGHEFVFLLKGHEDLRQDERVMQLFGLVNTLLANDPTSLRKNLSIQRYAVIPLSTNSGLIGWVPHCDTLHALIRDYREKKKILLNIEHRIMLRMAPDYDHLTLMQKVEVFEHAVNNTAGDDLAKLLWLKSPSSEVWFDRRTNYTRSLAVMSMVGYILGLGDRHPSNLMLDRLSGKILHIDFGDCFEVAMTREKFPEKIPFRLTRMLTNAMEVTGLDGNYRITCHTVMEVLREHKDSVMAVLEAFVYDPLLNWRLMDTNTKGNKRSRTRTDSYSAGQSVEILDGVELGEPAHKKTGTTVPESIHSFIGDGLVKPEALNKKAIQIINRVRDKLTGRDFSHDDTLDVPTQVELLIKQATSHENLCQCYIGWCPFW

Row | IC50 [1] [nM] | IC50 [2] [nM] | Structure (SMILES)
1 | 3.85 | 2.74 | C[C@H]1COCCN1c1cc(C2(S(C)(=O)=O)CCC2)nc(-c2ccc(NC(=O)NC3CCC3)cc2)n1 [Example 5d, 3-cyclobutyl-1-[4-[4-[(3S)-3-methylmorpholin-4-yl]-6-(1-methylsulfonylcyclobutyl)pyrimidin-2-yl]phenyl]urea]
2 | 7.36 | 4.85 | C[C@H]1COCCN1c1cc(C2(S(C)(=O)=O)CCC2)nc(-c2ccc(NC(=O)NC(C)(C)CO)cc2)n1 [Example 5f, 3-(1-hydroxy-2-methyl-propan-2-yl)-1-[4-[4-[(3S)-3-methylmorpholin-4-yl]-6-(1-methylsulfonylcyclobutyl)pyrimidin-2-yl]phenyl]urea]
3 | 66.8 | – | C[C@H]1COCCN1c1cc(C2(S(C)(=O)=O)CCC2)nc(-c2ccc(NC(=O)NCCN(C)C)cc2)n1 [Example 5g, 3-(2-dimethylaminomethyl)-1-[4-[4-[(3S)-3-methylmorpholin-4-yl]-6-(1-methylsulfonylcyclobutyl)pyrimidin-2-yl]phenyl]urea]
4 | 2.34 | – | CCCNC(=O)Nc1ccc(-c2nc(N3CCOC[C@@H]3C)cc(C3(S(C)(=O)=O)CCC3)n2)cc1 [Example 5h, 1-[4-[4-[(3S)-3-methylmorpholin-4-yl]-6-(1-methylsulfonylcyclobutyl)pyrimidin-2-yl]phenyl]-3-propyl-urea]
5 | 9.88 | – | CC(C)CNC(=O)Nc1ccc(-c2nc(N3CCOC[C@@H]3C)cc(C3(S(C)(=O)=O)CCC3)n2)cc1 [Example 5i, 1-[4-[4-[(3S)-3-methylmorpholin-4-yl]-6-(1-methylsulfonylcyclobutyl)pyrimidin-2-yl]phenyl]-3-(2-methylpropyl)urea]
6 | 0.239 | 0.173 | C[C@H]1COCCN1c1cc(C2(S(C)(=O)=O)CCC2)nc(-c2ccc(NC(=O)NCCCO)cc2)n1 [Example 5j, 3-(3-hydroxypropyl)-1-[4-[4-[(3S)-3-methylmorpholin-4-yl]-6-(1-methylsulfonylcyclobutyl)pyrimidin-2-yl]phenyl]urea]
7 | 3.33 | – | C[C@H]1COCCN1c1cc(C2(S(C)(=O)=O)CCC2)nc(-c2ccc(NC(=O)Nc3ccc(C(F)(F)F)cc3)cc2)n1 [Example 5k, 1-[4-[4-[(3S)-3-methylmorpholin-4-yl]-6-(1-methylsulfonylcyclobutyl)pyrimidin-2-yl]phenyl]-3-[4-(trifluoromethyl)phenyl]urea]
8 | 0.248 | 0.237 | C[C@H]1COCCN1c1cc(C2(S(C)(=O)=O)CCC2)nc(-c2ccc(NC(=O)Nc3ccccn3)cc2)n1 [Example 5l, 1-[4-[4-[(3S)-3-methylmorpholin-4-yl]-6-(1-methylsulfonylcyclobutyl)pyrimidin-2-yl]phenyl]-3-pyridin-2-yl-urea]
9 | 0.69 | 0.604 | C[C@H]1COCCN1c1cc(C2(S(C)(=O)=O)CCC2)nc(-c2ccc(NC(=O)Nc3cnn(C)c3)cc2)n1 [Example 5m, 1-[4-[4-[(3S)-3-methylmorpholin-4-yl]-6-(1-methylsulfonylcyclobutyl)pyrimidin-2-yl]phenyl]-3-(1-methylpyrazol-4-yl)urea]
10 | 8.28 | – | C[C@H]1COCCN1c1cc(C2(S(C)(=O)=O)CCC2)nc(-c2ccc(NC(=O)NCc3ncc[nH]3)cc2)n1 [Example 5n, 3-(1H-imidazol-2-ylmethyl)-1-[4-[4-[(3S)-3-methylmorpholin-4-yl]-6-(1-methylsulfonylcyclobutyl)pyrimidin-2-yl]phenyl]urea]
11 | 1 | – | C[C@H]1COCCN1c1cc(C2(S(=O)(=O)c3ccncc3)CC2)nc(-c2ccc(NC(=O)NC3CCC3)cc2)n1 [Example 6, 3-Cyclobutyl-1-[4-[4-[(3S)-3-methylmorpholin-4-yl]-6-(1-pyridin-4-ylsulfonylcyclopropyl)pyrimidin-2-yl]phenyl]urea]
12 | 2.93 | – | C[C@H]1COCCN1c1cc(C2(S(=O)(=O)c3ccncc3)CC2)nc(-c2ccc(NC(=O)Nc3ccccn3)cc2)n1 [Example 6a, 1-[4-[4-[(3S)-3-methylmorpholin-4-yl]-6-(1-pyridin-4-ylsulfonylcyclopropyl)pyrimidin-2-yl]phenyl]-3-pyridin-2-yl-urea]
13 | 6.12 | – | CC(C)CNC(=O)Nc1ccc(-c2nc(N3CCOC[C@@H]3C)cc(C3(S(=O)(=O)c4ccncc4)CC3)n2)cc1 [Example 6b, 1-[4-[4-[(3S)-3-methylmorpholin-4-yl]-6-(1-pyridin-4-ylsulfonylcyclopropyl)pyrimidin-2-yl]phenyl]-3-(2-methylpropyl)urea]
14 | 3.21 | – | CC(C)NC(=O)Nc1ccc(-c2nc(N3CCOC[C@@H]3C)cc(C3(S(=O)(=O)c4ccncc4)CC3)n2)cc1 [Example 6c, 1-[4-[4-[(3S)-3-methylmorpholin-4-yl]-6-(1-pyridin-4-ylsulfonylcyclopropyl)pyrimidin-2-yl]phenyl]-3-propan-2-yl-urea]
15 | 0.874 | – | CCNC(=O)Nc1ccc(-c2nc(N3CCOC[C@@H]3C)cc(C3(S(=O)(=O)c4ccncc4)CC3)n2)cc1 [Example 6d, 3-ethyl-1-[4-[4-[(3S)-3-methylmorpholin-4-yl]-6-(1-pyridin-4-ylsulfonylcyclopropyl)pyrimidin-2-yl]phenyl]urea]
16 | 67.3 | – | C[C@H]1COCCN1c1cc(C2(S(=O)(=O)c3ccncc3)CC2)nc(-c2ccc(NC(=O)NCCN(C)C)cc2)n1 [Example 6e, 3-(2-dimethylaminoethyl)-1-[4-[4-[(3S)-3-methylmorpholin-4-yl]-6-(1-pyridin-4-ylsulfonylcyclopropyl)pyrimidin-2-yl]phenyl]urea]
17 | 0.794 | – | C[C@H]1COCCN1c1cc(C2(S(=O)(=O)c3ccncc3)CC2)nc(-c2ccc(NC(=O)NCCO)cc2)n1 [Example 6f, 3-(2-hydroxyethyl)-1-[4-[4-[(3S)-3-methylmorpholin-4-yl]-6-(1-pyridin-4-ylsulfonylcyclopropyl)pyrimidin-2-yl]phenyl]urea]
18 | 2.25 | – | CCCNC(=O)Nc1ccc(-c2nc(N3CCOC[C@@H]3C)cc(C3(S(=O)(=O)c4ccncc4)CC3)n2)cc1 [Example 6g, 1-[4-[4-[(3S)-3-methylmorpholin-4-yl]-6-(1-pyridin-4-ylsulfonylcyclopropyl)pyrimidin-2-yl]phenyl]-3-propyl-urea]
19 | 4.62 | – | C[C@H]1COCCN1c1cc(C2(S(=O)(=O)c3ccncc3)CC2)nc(-c2ccc(NC(=O)Nc3ccc(C(F)(F)F)cc3)cc2)n1 [Example 6i, 1-[4-[4-[(3S)-3-methylmorpholin-4-yl]-6-(1-pyridin-4-ylsulfonylcyclopropyl)pyrimidin-2-yl]phenyl]-3-[4-(trifluoromethyl)phenyl]urea]
20 | 5.93 | – | C[C@H]1COCCN1c1cc(C2(S(=O)(=O)c3ccncc3)CC2)nc(-c2ccc(NC(=O)NC(C)(C)CO)cc2)n1 [Example 6j, 3-(1-hydroxy-2-methyl-propan-2-yl)-1-[4-[4-[(3S)-3-methylmorpholin-4-yl]-6-(1-pyridin-4-ylsulfonylcyclopropyl)pyrimidin-2-yl]phenyl]urea]
21 | 1.86 | – | C[C@H]1COCCN1c1cc(C2(S(=O)(=O)c3ccncc3)CC2)nc(-c2ccc(NC(=O)NCCCO)cc2)n1 [Example 6k]
22 | 1.19 | – | C[C@H]1COCCN1c1cc(C2(S(=O)(=O)c3ccncc3)CC2)nc(-c2ccc(NC(=O)Nc3cnn(C)c3)cc2)n1 [Example 6l, 1-[4-[4-[(3S)-3-methylmorpholin-4-yl]-6-(1-pyridin-4-ylsulfonylcyclopropyl)pyrimidin-2-yl]phenyl]-3-(1-methylpyrazol-4-yl)urea]
